Test results from patent US6403807B1, “Bridged fluorescent dyes, their preparation and their use in assays” (SurroMed, Inc., priority 1999, dated 2002).

Legend:
[1] = UV-Visible absorption spectra of the dyes; type: physicochemical
Description: (§1) UV-Visible absorption spectra were recorded on Shimadzu UV-2401PC Spectrophotometer, while fluorescence measurements were performed Spex-Fluorlog2 Fluorometer (Instrument S.A. Inc.).
(§2) The spectral properties of the dyes of the previous Examples were measured. […] Other materials absorbed at the […] krypton laser wavelength.

[2] = Fluorescence measurements (excitation/emission) of the dyes; type: physicochemical
Description: as §1, §2

| δmax (absorption maximum) ([1]; CH2Cl2) | δem (emission wavelength) ([2]; CH2Cl2) | other results | Compound |
| --- | --- | --- | --- |
| – | – | e (extinction coefficient at δmax) ([1]; PBS buffer): 250,000; δmax (absorption maximum) ([1]; PBS buffer): 648 nm; δem (emission wavelength) ([2]; PBS): 674 nm; δex (excitation wavelength) ([2]; PBS): 648 nm | CC1(C)C2=[N+](CCCCCC(=O)Nc3cc(cc(C(=O)O)c3)NC(=O)CCCCCN3/C(=C/C=C/C=C/2)C(C)(C)c2cc(S(=O)(=O)O)ccc23)c2ccc(S(=O)(=O)[O-])cc21 [Dye 16, Bridged Pentamethine Indoleninium Cyanine Dye] |
| – | – | δmax (absorption maximum) ([1]; PBS buffer): 748 nm; δem (emission wavelength) ([2]; PBS): 780 nm; δex (excitation wavelength) ([2]; PBS): 748 nm | CC1(C)C2=[N+](CCCCCC(=O)Nc3cc(cc(C(=O)O)c3)NC(=O)CCCCCN3/C(=C/C=C/C=C/C=C/2)C(C)(C)c2cc(S(=O)(=O)O)ccc23)c2ccc(S(=O)(=O)[O-])cc21 [Dye 17, Bridged Heptamethine Indoleninium Cyanine Dye] |
| 656 nm | 674 nm | – | CC1(C)C2=[N+](CCCCCCCCCCCCN3/C(=C/C=C/C=C/2)C(C)(C)c2ccccc23)c2ccccc21.[Br-] [Dye 19] |
| 648 nm | – | – | CC1(C)C2=[N+](CCCCCCCCCCCCN3/C(=C/C4=C([O-])C(=C/2)/C4=O)C(C)(C)c2ccccc23)c2ccccc21 [Dye 20, Dodecanyl Bridged Indoleninium Squaraine Dye] |
| 760 nm | 790 nm | – | CC1(C)C2=[N+](CCCCCCCCCCCCN3/C(=C/C=C/C=C/C=C/2)C(C)(C)c2ccccc23)c2ccccc21.[Br-] [Dye 21, Dodecanyl Bridged Indoleninium Heptamethine Cyanine Dye] |
| 696 nm | 716 nm | – | CC1(C)C2=[N+](CCCCCCCCCCCCN3/C(=C/C=C/C=C/2)C(C)(C)c2c3ccc3ccccc23)c2ccc3ccccc3c21.[Br-] [Dye 23, Dodecanyl Bridged Benzindoleninium Pentamethine Cyanine dye] |
| 671 nm | 681 nm | – | CC1(C)C2=[N+](CCCCCCCCCCCCN3/C(=C/C4=C([O-])C(=C/2)/C4=O)C(C)(C)c2c3ccc3ccccc23)c2ccc3ccccc3c21 [Dye 24, Dodecanyl Bridged Benzindoleninium Squaraine Dye] |
| 800 nm | 820 nm | – | CC1(C)C2=[N+](CCCCCCCCCCCCN3/C(=C/C=C/C=C/C=C/2)C(C)(C)c2c3ccc3ccccc23)c2ccc3ccccc3c21 [Dye 25, Dodecanyl Bridged Benzindoleninium Heptamethine Dye] |
| – | – | δmax (absorption maximum) ([1]; solvent not stated): 563 nm | CC1(C)C2=[N+](CCCCCC(=O)Nc3cc(cc(C(=O)O)c3)NC(=O)CCCCCN3/C(=C/C=C/2)C(C)(C)c2cc(S(=O)(=O)[O-])ccc23)c2ccc(S(=O)(=O)O)cc21 [Dye 27, Bridged Trimethine Indolenium Cyanine Dye] |
| – | – | δmax (absorption maximum) ([1]; solvent not stated): 649 nm | CC1(C)C2=CC3=C(S)/C(=C\C4=[N+](CCCCCC(=O)Nc5cc(cc(C(=O)O)c5)NC(=O)CCCCCN2c2ccc(S(=O)(=O)O)cc21)c1ccc(S(=O)(=O)[O-])cc1C4(C)C)C3=S [Dye 28, Bridged Thiosquarylium Dye] |
